The record followed here is patent publication US6956035B2, “Isoquinoline derivatives and methods of use thereof” (Inotek Pharmaceuticals Corporation, priority 2001, dated 2005).

The subject of one test is mice. Put plainly: Single high-dose streptozotocin model of diabetes. Format: in vivo. Particulars: 3 mg/kg i.p.; STZ 160 mg/kg; blood sugar 3 days later; STZ + Vehicle 320 ± 13, basal 153 ± 21. Here is the method: PARS inhibitors and PARS deficiency are known to reduce the development of diabetes and the incidence of diabetic complications (Mabley et al., Br J Pharmacol. 2001, 133(6):909-9; and Soriano et al., Nat Med. 2001, 7(1):108-13). […] Briefly, 160 mg/kg streptozotocin was injected to mice treated with vehicle or with illustrative Isoquinoline Derivatives intraperitoneally (3 mg/kg) and 3 days later blood sugar levels were determined using a blood glucose meter.

In another test the target is T1, PARS (Mus musculus, UniProt P11103).
T1 construct: endogenous in cells; host or cells: RAW mouse macrophages
T1 sequence (P11103 whole entry): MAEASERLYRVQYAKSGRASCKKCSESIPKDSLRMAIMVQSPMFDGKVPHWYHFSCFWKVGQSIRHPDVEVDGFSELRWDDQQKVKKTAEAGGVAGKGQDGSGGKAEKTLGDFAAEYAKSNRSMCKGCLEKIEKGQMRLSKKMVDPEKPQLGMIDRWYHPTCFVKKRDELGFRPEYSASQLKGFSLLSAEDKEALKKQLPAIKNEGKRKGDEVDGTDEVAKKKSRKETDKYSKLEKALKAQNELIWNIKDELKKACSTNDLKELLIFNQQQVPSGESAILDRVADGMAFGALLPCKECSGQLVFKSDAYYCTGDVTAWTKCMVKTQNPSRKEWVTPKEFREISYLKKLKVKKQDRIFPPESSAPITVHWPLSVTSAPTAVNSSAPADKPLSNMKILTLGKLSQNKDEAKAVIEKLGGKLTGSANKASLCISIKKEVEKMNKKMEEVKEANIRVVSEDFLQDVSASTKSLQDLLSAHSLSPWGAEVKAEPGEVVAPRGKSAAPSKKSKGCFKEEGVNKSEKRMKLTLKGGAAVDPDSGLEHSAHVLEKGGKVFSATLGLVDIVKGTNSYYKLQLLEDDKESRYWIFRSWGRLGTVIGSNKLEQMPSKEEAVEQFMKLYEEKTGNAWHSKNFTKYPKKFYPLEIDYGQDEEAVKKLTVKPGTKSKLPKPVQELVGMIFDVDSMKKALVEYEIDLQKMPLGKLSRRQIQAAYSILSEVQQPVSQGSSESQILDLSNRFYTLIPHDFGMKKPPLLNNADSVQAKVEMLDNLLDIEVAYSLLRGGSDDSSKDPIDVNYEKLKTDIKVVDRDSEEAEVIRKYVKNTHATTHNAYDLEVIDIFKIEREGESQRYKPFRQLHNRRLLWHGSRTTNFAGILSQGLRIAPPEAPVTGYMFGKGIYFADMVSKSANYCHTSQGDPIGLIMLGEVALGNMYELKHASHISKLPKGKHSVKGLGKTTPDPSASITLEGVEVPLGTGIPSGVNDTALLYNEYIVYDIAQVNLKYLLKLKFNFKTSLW
Put plainly: PARS activation in peroxynitrite-stimulated cultured RAW macrophages (whole-cell assay, 3H-NAD+ incorporation). Format: cell-based. Particulars: cultured murine macrophages; for inhibition at 0.1 µM / % PARS inhibition at 100 nM: 100 nM. Here is the method:
RAW mouse macrophages were cultured in DMEM medium with high glucose and supplemented with 10% fetal bovine serum. Cells were used at 80% confluence in 12-well plates. Cells were pretreated with various concentrations (100 nM-1 μM) of an Isoquinoline Derivative for 10 min. Peroxynitrite, a prototypical oxidant which induces DNA single strand breakage, was used to induce PARS activation. Peroxynitrite was diluted in phosphate buffered saline (PBS) (pH 11.0) and added to the cells in a bolus of 50 μl. Cells were then incubated for 20 min. […] Following an incubation in assay buffer, (10 min at 37° C.), PARS activity was measured as follows: 200 μl ice cold 50% w/v TCA was added and the samples were incubated for 4 hours at 4° C. Samples were then spun (10 min@10,000 g) and pellets washed twice with ice cold 5% w/v TCA and solubilized overnight in 250 μl 2% w/v SDS/0.1 N NaOH at 37° C. The contents of the tubes were added to 6.5 ml ScintiSafe Plus scintillation liquid (Fisher Scientific) and radioactivity was determined using a liquid scintillation counter (Wallac, Gaithersburg, Md.).

Another test deals with TNF-alpha. In words: LPS induced TNF production in mice in vivo. The settings on record: LPS 10 mg/kg i.p., plasma at 90 minutes, vehicle 6994.0.
In the next test the target is T2, purified PARS enzyme (Homo sapiens, UniProt P09874).
T2 construct: purchased Trevigen, Gaithersburg, Md
T2 sequence (P09874 whole entry): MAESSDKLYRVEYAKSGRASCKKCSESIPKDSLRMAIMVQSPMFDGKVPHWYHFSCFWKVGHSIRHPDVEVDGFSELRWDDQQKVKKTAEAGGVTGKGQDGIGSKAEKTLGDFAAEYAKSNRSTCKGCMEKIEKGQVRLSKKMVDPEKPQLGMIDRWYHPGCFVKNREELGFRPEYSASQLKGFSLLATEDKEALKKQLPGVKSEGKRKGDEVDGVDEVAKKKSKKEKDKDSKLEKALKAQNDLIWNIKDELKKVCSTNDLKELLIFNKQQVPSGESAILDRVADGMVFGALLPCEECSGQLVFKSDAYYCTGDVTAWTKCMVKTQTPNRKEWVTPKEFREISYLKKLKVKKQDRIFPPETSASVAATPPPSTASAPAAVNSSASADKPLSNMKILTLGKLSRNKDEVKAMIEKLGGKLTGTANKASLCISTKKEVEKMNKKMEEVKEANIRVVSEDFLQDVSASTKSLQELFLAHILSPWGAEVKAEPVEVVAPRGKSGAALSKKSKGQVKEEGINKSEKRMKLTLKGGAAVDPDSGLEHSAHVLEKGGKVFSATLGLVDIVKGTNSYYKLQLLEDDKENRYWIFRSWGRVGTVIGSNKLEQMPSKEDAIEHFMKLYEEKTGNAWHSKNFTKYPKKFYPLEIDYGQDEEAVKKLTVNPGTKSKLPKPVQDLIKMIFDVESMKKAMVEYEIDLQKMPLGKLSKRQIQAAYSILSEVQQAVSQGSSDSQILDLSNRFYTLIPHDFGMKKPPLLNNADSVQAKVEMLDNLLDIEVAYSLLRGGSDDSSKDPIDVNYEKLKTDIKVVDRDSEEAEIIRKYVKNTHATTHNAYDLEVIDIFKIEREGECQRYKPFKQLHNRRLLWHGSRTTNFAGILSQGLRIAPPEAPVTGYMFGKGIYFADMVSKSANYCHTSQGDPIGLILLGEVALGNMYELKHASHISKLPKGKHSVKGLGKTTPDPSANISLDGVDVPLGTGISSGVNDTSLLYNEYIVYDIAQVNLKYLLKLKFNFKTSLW
In words: Purified PARS enzyme inhibition assay (Trevigen kit, 96 well ELISA plates). Format: biochemical. The settings on record: starred values: tested in purified enzyme assay. The procedure:
The assay was performed in 96 well ELISA plates according to instructions provided with a commercially available PARS inhibition assay kit (Trevigen, Gaithersburg, Md.). Briefly, wells were coated with 1 mg/mL histone (50 μl/well) at 4° C. overnight. Plates were then washed four times with PBS and then blocked by adding 50 μl Strep-Diluent (supplied with the kit). After incubation (1 h, room temperature), the plates were washed four times with PBS. Appropriate dilutions of PARS inhibitors were combined with 2×PARS cocktail (1.95 mM NAD^+, 50 μM biotinylated NAD^+ in 50 mM TRIS pH 8.0, 25 mM MgCl2) and high specific activity PARS enzyme (both were supplied with the kit) in a volume of 50 μl. The reaction was allowed to proceed for 30 min at room temperature. After 4 washes in PBS, incorporated biotin was detected by peroxidase-conjugated streptavidin (1:500 dilution) and TACS Sapphire substrate.

Another test deals with rat. Put plainly: Rat model of middle cerebral artery occlusion/reperfusion. The settings on record: 3 mg/kg/day i.p. Format: in vivo. The procedure: Occlusion lasted for 2 hours, followed by reperfusion for 24 hours. Infarct size was quantified with tetrazolium staining. […] There was an approximately 80% reduction in the degree of cortical necrosis and neuronal death in the animals administered with 8l, when compared to vehicle-treated controls.

Marks after values point to notes of the source that are not given here.

For the molecule `CCN(CC)CCN(CCN(CC)CC)S(=O)(=O)c1ccc2c(c1)Cc1c-2[nH]c(=O)c2ccccc12` [Compound 8p, 9-[N,N-di-(2-[N,N-diethylamino]ethyl)-aminosulphonyl]-5,6-dihydro-5-oxo-11H-indeno-[1,2-c]isoquinoline], in the test on mice, the Glucose is 264 ± 24 mg/dL. At PARS, the inhibition at 0.1 µM amounted to 27%. For the same molecule, the inhibition at 0.3 µM against PARS (300 nM) is 45%. Further, the TNF in the test with TNF-alpha (0.1 mg/kg i.p. pretreatment) worked out at 4470 pg/mL; with TNF-alpha (1.0 mg/kg i.p. pretreatment), 5090 pg/mL. On to `O=c1[nH]c2c3ccc(S(=O)(=O)O)cc3n(S(=O)(=O)O)c2c2ccccc12` [Compound 34], for which the “% PARS inhibition at 100 nM” value at purified PARS enzyme is given as 14* %. Besides, at purified PARS enzyme (300 nM), the “% PARS inhibition at 300 nM” value is given as 33* %. At PARS, `O=c1[nH]c2c3ccccc3oc2c2ccccc12` [Compound 22a] displayed an inhibition at 0.1 µM of 51% and an inhibition at 1 µM of 81%. In the case of `COc1ccc2c(c1)oc1c3ccccc3c(=O)[nH]c21` [Compound 22c], at PARS, 0.1 µM produced 62% inhibition and the inhibition at 1 µM worked out at 83%. At 0.3 µM the inhibition against PARS (300 nM) was 66%. Consider `NS(=O)(=O)c1ccc2c3[nH]c(=O)c4ccccc4c3n(S(N)(=O)=O)c2c1` [Compound 35a, 6H,11H-Indole-[3,2-C]-Isoquinoline-5-one-9,11-disulfonamide], for which, at PARS, the “% PARS inhibition at 100 nM” value worked out at 14% and the “% PARS inhibition at 1 μM” value is on record as 75%.

For the molecule `O=C(O)CCNC(=O)c1ccc2oc3c4ccccc4c(=O)[nH]c3c2c1` [Compound 26b], the “% PARS inhibition at 100 nM” value at purified PARS enzyme is 21* %. Consider `O=c1[nH]c2c(c3ccccc13)Cc1cc(S(=O)(=O)NCCCN3CCOCC3)ccc1-2` [Compound 8l, 9-[N-(3-[morpholino-4-yl]propyl)-aminosulphonyl]-5,6-dihydro-5-oxo-11H-indeno-[1,2-c]isoquinoline], for which the functional benefit entry with rat is reported as “neurological improvements”. On PARS, `O=c1[nH]c2c3cccc(O)c3oc2c2ccccc12` [Compound 23c] yielded an inhibition at 0.1 µM of 63% and an inhibition at 1 µM of 63%. For the same molecule, testing at 0.3 µM against PARS (300 nM) gave an inhibition of 66%. `O=C(O)c1ccc2c(c1)oc1c3ccccc3c(=O)[nH]c21` [Compound 22g] yielded an inhibition at 0.3 µM against PARS (300 nM) of 23%. The same molecule displayed an inhibition at 1 µM at PARS of 27%. On to `Cc1ccc2oc3c4ccccc4c(=O)[nH]c3c2c1` [Compound 22e], for which, on PARS, at 0.1 µM the inhibition was 38% and the inhibition at 1 µM is 53%. The molecule also registered an inhibition at 0.3 µM against PARS (300 nM) of 56%. In the case of `O=c1[nH]c2c(c3ccccc13)Cc1cc(S(=O)(=O)N3CCC[C@H]3CO)ccc1-2` [Compound 8e, 9-[N-(2-hydroxyprolinyl)sulphonyl]-5,6-dihydro-5-oxo-11H-indeno[1,2-c]isoquinoline], the “% PARS inhibition at 300 nM” value on PARS (300 nM) came out at 68%. In the case of `CN1CCN(C2c3ccccc3-c3[nH]c(=O)c4ccccc4c32)CC1` (racemic) [Compound 5d, (±) 11-(N-methylpiperazin)-5,6-dihydro-5-oxo-11H-indeno[1,2-c]isoquinoline], at PARS, the “% PARS inhibition at 1 μM” value was 48%. On to `O=c1[nH]c2c(c3ccccc13)C(N1CCNCC1)c1ccccc1-2` (racemic) [Compound 5c, (±) 11-piperizin-5,6-dihydro-5-oxo-11H-indeno[1,2-c]isoquinoline], for which, at PARS, the “% PARS inhibition at 100 nM” value turned out to be 0% and the “% PARS inhibition at 1 μM” value worked out at 24%. Turning to `O=c1[nH]c2c3ccccc3[nH]c2c2ccccc12` [Compound 31, 6H,11H-Indole-[3,2-C]-Isoquinoline-5-one], the “% PARS inhibition at 100 nM” value on PARS is 18%. Molecule `CN(C)CCN(CCN(C)C)S(=O)(=O)c1ccc2c(c1)Cc1c-2[nH]c(=O)c2ccccc12` [Compound 8q, 9-[N,N-di-(2-[N,N-dimethylamino]ethyl)-aminosulphonyl]-5,6-dihydro-5-oxo-11H-indeno-[1,2-c]isoquinoline] registered an inhibition at 0.1 µM against PARS of 20%. On PARS (300 nM), this molecule registered an inhibition at 0.3 µM of 28%. Take `COc1cccc2c1oc1c3ccccc3c(=O)[nH]c21` [Compound 22d]: on purified PARS enzyme (1 μM), the inhibition at 1 µM was found to be 13%.

For the molecule `O=C(O)c1ccc2oc3c4ccccc4c(=O)[nH]c3c2c1` [Compound 22f], the inhibition at 0.3 µM against PARS (300 nM) came to 23%. Also, on PARS, the inhibition at 1 µM came out at 27%. For `O=c1[nH]c2c(c3ccccc13)Cc1cc(S(=O)(=O)NCCN3CCOCC3)ccc1-2` [Compound 8j, 9-[N-(2-[morpholino-4-yl]ethyl)-aminosulphonyl]-5,6-dihydro-5-oxo-11H-indeno[1,2-c]isoquinoline], in the test on mice, the Glucose amounted to 253 ± 24.
